From publication PMC7884382, “A Phase 1 study of RO6870810, a novel bromodomain and extra-terminal protein inhibitor, in patients with NUT carcinoma, other solid tumours, or diffuse large B-cell lymphoma” (British Journal of Cancer, 2020)
Read-outs that look alike come from different tables or passages of the source.

Experimental: Patients were considered evaluable for safety if they received ≥1 injection of the study drug. All adverse events (AEs) were graded per the National Cancer Institute’s Common Terminology Criteria for Adverse Events (CTCAE) version 4.03.
Grade ≤3 drug-related fever or skin or SC tissue disorders localised to the site of injection—including grade ≤3 rash, pruritus, skin induration or pain—were not considered DLTs.
Data for patients with NC and lymphoma were evaluated but not included in the MTD determination.

Cc1sc2c(c1C)C(c1ccc(Cl)cc1)=N[C@@H](CC(=O)NCCCN1CCN(C)CC1)c1nnc(C)n1-2 [RO6870810]
Death due to AE (DLBCL (n = 19)): 3 (15.8) n (%)
Death due to treatment-related AE (DLBCL (n = 19)): 0 n (%)
Death due to AE (NC (n = 8)): 3 (37.5) n (%)
Death due to treatment-related AE (NC (n = 8)): 0 n (%)
Death due to AE (Solid tumours (n = 47)): 2 (4.3) n (%)
Death due to treatment-related AE (Solid tumours (n = 47)): 0 n (%)
Treatment-related grade 5 AEs (all patients): No treatment-related grade 5 AEs occurred
Grade 3/4 treatment-related AE: anaemia (human, in vivo): 8%
Grade 3/4 treatment-related AE: fatigue (human, in vivo): 10%
Grade 3/4 treatment-related AE: hyperbilirubinemia (human, in vivo): 5%
Grade 3/4 treatment-related AE: thrombocytopenia (human, in vivo): 10%
Incidence of treatment-related thrombocytopenia (human, in vivo): 12%
Treatment-emergent AE: Abdominal pain (human, in vivo): 13 (17.6) n (%)
Treatment-emergent AE: Anemia (human, in vivo): 20 (27.0) n (%)
Treatment-emergent AE: Back pain (human, in vivo): 13 (17.6) n (%)
Treatment-emergent AE: Blood bilirubin increased (human, in vivo): 14 (18.9) n (%)
Treatment-emergent AE: Constipation (human, in vivo): 14 (18.9) n (%)
Treatment-emergent AE: Cough (human, in vivo): 10 (13.5) n (%)
Treatment-emergent AE: Decreased appetite (human, in vivo): 38 (51.4) n (%)
Treatment-emergent AE: Dehydration (human, in vivo): 13 (17.6) n (%)
Treatment-emergent AE: Diarrhea (human, in vivo): 26 (35.1) n (%)
Treatment-emergent AE: Dizziness (human, in vivo): 10 (13.5) n (%)
Treatment-emergent AE: Dry mouth (human, in vivo): 11 (14.9) n (%)
Treatment-emergent AE: Dysgeusia (human, in vivo): 20 (27.0) n (%)
Treatment-emergent AE: Dyspnea (human, in vivo): 12 (16.2) n (%)
Treatment-emergent AE: Fatigue (human, in vivo): 43 (58.1) n (%)
Treatment-emergent AE: Headache (human, in vivo): 12 (16.2) n (%)
Treatment-emergent AE: Hypomagnesaemia (human, in vivo): 10 (13.5) n (%)
Treatment-emergent AE: Injection site erythema (human, in vivo): 26 (35.1) n (%)
Treatment-emergent AE: Injection site induration (human, in vivo): 21 (28.4) n (%)
Treatment-emergent AE: Injection site pain (human, in vivo): 25 (33.8) n (%)
Treatment-emergent AE: Injection site pruritus (human, in vivo): 15 (20.3) n (%)
Treatment-emergent AE: Injection site reaction (human, in vivo): 10 (13.5) n (%)
Treatment-emergent AE: Injection site swelling (human, in vivo): 10 (13.5) n (%)
Treatment-emergent AE: Malaise (human, in vivo): 16 (21.6) n (%)
Treatment-emergent AE: Myalgia (human, in vivo): 12 (16.2) n (%)
Treatment-emergent AE: Nausea (human, in vivo): 32 (43.2) n (%)
Treatment-emergent AE: Thrombocytopenia (human, in vivo): 10 (13.5) n (%)
Treatment-emergent AE: Vomiting (human, in vivo): 28 (37.8) n (%)
Treatment-emergent AE: Weight decreased (human, in vivo): 9 (12.2) n (%)
Treatment-related AE of any grade: decreased appetite (human, in vivo): 35%
Treatment-related AE of any grade: fatigue (human, in vivo): 42%
Treatment-related AE of any grade: injection-site erythema (human, in vivo): 35%
Treatment-related AE of any grade: injection-site pain (human, in vivo): 32%
Treatment-related AE of any grade: nausea (human, in vivo): 31%
Treatment-related AE: Cardiomyopathy (human, in vivo): 1 (1.4) n (%)
Treatment-related AE: Cholestasis (human, in vivo): 1 (1.4) n (%)
Treatment-related AE: Dyspnoea (human, in vivo): 1 (1.4) n (%)
Treatment-related AE: Hepatic enzyme increased (human, in vivo): 1 (1.4) n (%)
Treatment-related AE: Neutropenia (human, in vivo): 1 (1.4) n (%)
Treatment-related AE: Peritoneal haemorrhage (human, in vivo): 1 (1.4) n (%)
Treatment-emergent AE: Abdominal pain (human, in vivo, 0.03 mg/kg): 1 (33.3) n (%)
Treatment-emergent AE: Anemia (human, in vivo, 0.03 mg/kg): 0 n (%)
Treatment-emergent AE: Back pain (human, in vivo, 0.03 mg/kg): 0 n (%)
Treatment-emergent AE: Blood bilirubin increased (human, in vivo, 0.03 mg/kg): 0 n (%)
Treatment-emergent AE: Constipation (human, in vivo, 0.03 mg/kg): 0 n (%)
Treatment-emergent AE: Cough (human, in vivo, 0.03 mg/kg): 0 n (%)
Treatment-emergent AE: Decreased appetite (human, in vivo, 0.03 mg/kg): 0 n (%)
Treatment-emergent AE: Dehydration (human, in vivo, 0.03 mg/kg): 0 n (%)
Treatment-emergent AE: Diarrhea (human, in vivo, 0.03 mg/kg): 1 (33.3) n (%)
Treatment-emergent AE: Dizziness (human, in vivo, 0.03 mg/kg): 0 n (%)
Treatment-emergent AE: Dry mouth (human, in vivo, 0.03 mg/kg): 0 n (%)
Treatment-emergent AE: Dysgeusia (human, in vivo, 0.03 mg/kg): 0 n (%)
Treatment-emergent AE: Dyspnea (human, in vivo, 0.03 mg/kg): 0 n (%)
Treatment-emergent AE: Fatigue (human, in vivo, 0.03 mg/kg): 0 n (%)
Treatment-emergent AE: Headache (human, in vivo, 0.03 mg/kg): 0 n (%)
Treatment-emergent AE: Hypomagnesaemia (human, in vivo, 0.03 mg/kg): 1 (33.3) n (%)
Treatment-emergent AE: Injection site erythema (human, in vivo, 0.03 mg/kg): 2 (66.7) n (%)
Treatment-emergent AE: Injection site induration (human, in vivo, 0.03 mg/kg): 1 (33.3) n (%)
Treatment-emergent AE: Injection site pain (human, in vivo, 0.03 mg/kg): 0 n (%)
Treatment-emergent AE: Injection site pruritus (human, in vivo, 0.03 mg/kg): 3 (100) n (%)
Treatment-emergent AE: Injection site reaction (human, in vivo, 0.03 mg/kg): 0 n (%)
Treatment-emergent AE: Injection site swelling (human, in vivo, 0.03 mg/kg): 1 (33.3) n (%)
Treatment-emergent AE: Malaise (human, in vivo, 0.03 mg/kg): 1 (33.3) n (%)
Treatment-emergent AE: Myalgia (human, in vivo, 0.03 mg/kg): 1 (33.3) n (%)
Treatment-emergent AE: Nausea (human, in vivo, 0.03 mg/kg): 1 (33.3) n (%)
Treatment-emergent AE: Thrombocytopenia (human, in vivo, 0.03 mg/kg): 0 n (%)
Treatment-emergent AE: Vomiting (human, in vivo, 0.03 mg/kg): 0 n (%)
Treatment-emergent AE: Abdominal pain (human, in vivo, 0.06 mg/kg): 1 (33.3) n (%)
Treatment-emergent AE: Anemia (human, in vivo, 0.06 mg/kg): 0 n (%)
Treatment-emergent AE: Back pain (human, in vivo, 0.06 mg/kg): 0 n (%)
Treatment-emergent AE: Blood bilirubin increased (human, in vivo, 0.06 mg/kg): 0 n (%)
Treatment-emergent AE: Constipation (human, in vivo, 0.06 mg/kg): 1 (33.3%) n (%)
Treatment-emergent AE: Cough (human, in vivo, 0.06 mg/kg): 0 n (%)
Treatment-emergent AE: Decreased appetite (human, in vivo, 0.06 mg/kg): 0 n (%)
Treatment-emergent AE: Dehydration (human, in vivo, 0.06 mg/kg): 0 n (%)
Treatment-emergent AE: Diarrhea (human, in vivo, 0.06 mg/kg): 0 n (%)
Treatment-emergent AE: Dizziness (human, in vivo, 0.06 mg/kg): 0 n (%)
Treatment-emergent AE: Dry mouth (human, in vivo, 0.06 mg/kg): 0 n (%)
Treatment-emergent AE: Dysgeusia (human, in vivo, 0.06 mg/kg): 0 n (%)
Treatment-emergent AE: Dyspnea (human, in vivo, 0.06 mg/kg): 0 n (%)
Treatment-emergent AE: Fatigue (human, in vivo, 0.06 mg/kg): 2 (66.7) n (%)
Treatment-emergent AE: Headache (human, in vivo, 0.06 mg/kg): 0 n (%)
Treatment-emergent AE: Hypomagnesaemia (human, in vivo, 0.06 mg/kg): 0 n (%)
Treatment-emergent AE: Injection site erythema (human, in vivo, 0.06 mg/kg): 1 (33.3) n (%)
